Experimental data reported in US8940896B2, “Tetra-cyclic carboline derivatives useful in the inhibition of angiogenesis” (PTC Therapeutics, Inc., priority 2004, dated 2015).

Test system: VEGF
Assay: Hypoxia-inducible endogenous VEGF expression, VEGF ELISA assay
Format: cell-based
Settings: Homo sapiens, HeLa, HeLa cells, hypoxic conditions (1% O2, 5% CO2), VEGF in conditioned media
Protocol: The ability of the compounds of the invention to modulate hypoxia-inducible endogenous VEGF expression may be analyzed as follows. VEGF protein levels may be monitored by an ELISA assay (R&D Systems). Briefly, HeLa cells may be cultured for 24-48 hours under hypoxic conditions (1% O2, 5% CO2, balanced with nitrogen) in the presence or absence of a compound of the invention. The conditioned media may then be assayed by ELISA, and the concentration of VEGF calculated from the standard ELISA curve of each assay.
A dose-response analysis may be performed using the ELISA assay and conditions described above. The conditions for the dose-response ELISA are analogous to those described above. A series of, e.g., seven different concentrations may be analyzed. In parallel, a dose-response cytotoxicity assay may be performed using CellTiter Glo (Promega) under the same conditions as the ELISA to ensure that the inhibition of VEGF expression was not due to the cytotoxicity. Dose-response curves may be plotted using percentage inhibition versus concentration of the compound, and EC50 and CC50 values may be generated for each compound with the maximal inhibition set as 100% and the minimal inhibition as 0%.

Row | Compound | EC50
1 | O=C1C2Cc3c([nH]c4ccccc34)C(c3cccc(Cl)c3)N2C(=S)N1CCc1ccccc1 (stereo not drawn) [Compound 38] | > 1000 nM
2 | COc1ccc(C2c3[nH]c4ccc(Br)cc4c3CC3C(=O)N(c4ccccc4F)C(=S)N32)cc1 (stereo not drawn) [Compound 166] | 8 to 40 nM
3 | Cc1ccc(N2C(=O)C3Cc4c([nH]c5ccccc45)C(c4cccc(Cl)c4)N3C2=S)cc1 (stereo not drawn) [Compound 34] | 200 to 1000 nM
4 | CC(C)N1C(=O)C2Cc3c([nH]c4ccc(Br)cc34)C(c3ccc(-c4cncnc4)cc3)N2C1=O (stereo not drawn) [Compound 121] | 40 to 200 nM
5 | COc1ccccc1C1c2[nH]c3ccccc3c2CC2C(=O)N(c3ccccc3C)C(=S)N21 (stereo not drawn) [Compound 89] | > 1000 nM
6 | O=C1C2Cc3c([nH]c4ccc(Br)cc34)C(C3CCCCC3)N2C(=S)N1C1CCCCC1 (stereo not drawn) [Compound 30] | 40 to 200 nM
7 | COc1cccc(C2c3[nH]c4ccccc4c3CC3C(=O)N(c4ccccc4)C(=S)N32)c1 (stereo not drawn) [Compound 57] | > 1000 nM
8 | CCCN1C(=O)C2Cc3c([nH]c4ccc(Br)cc34)C(c3ccc(OCCN4CCOCC4)cc3)N2C1=S (stereo not drawn) [Compound 102] | 8 to 40 nM
9 | COc1ccccc1C1c2[nH]c3ccccc3c2CC2C(=O)N(Cc3ccccc3)C(=S)N21 (stereo not drawn) [Compound 93] | > 1000 nM
10 | CC(C)N1C(=O)C2Cc3c([nH]c4ccc(Br)cc34)C(c3ccc(OCCCN4CCN(C)CC4)cc3)N2C1=S (stereo not drawn) [Compound 159] | < 8 nM
11 | COc1ccccc1C1c2[nH]c3ccccc3c2CC2C(=O)N(c3cccc(C)c3)C(=S)N21 (stereo not drawn) [Compound 90] | > 1000 nM
12 | O=C1C2Cc3c([nH]c4ccc(Br)cc34)C(c3ccc4c(c3)OCO4)N2C(=S)N1C1CC1 (stereo not drawn) [Compound 18] | < 8 nM
13 | CC(C)N1C(=O)C2Cc3c([nH]c4ccc(Br)cc34)C(c3ccc(-n4ccnc4)cc3)N2C1=S (stereo not drawn) [Compound 128] | 8 to 40 nM
14 | O=C1C2Cc3c([nH]c4ccc(Cl)cc34)C(c3ccc(OCCN4CCOCC4)cc3)N2C(=S)N1C1CCCCC1 (stereo not drawn) [Compound 113] | < 8 nM
15 | COc1ccc(C2c3[nH]c4ccccc4c3CC3C(=O)N(C(C)(C)C)C(=S)N32)cc1 (stereo not drawn) [Compound 70] | > 1000 nM
16 | COc1ccc(C2c3[nH]c4ccc(Br)cc4c3CC3C(=O)N(c4cccc(OC)c4)C(=S)N32)cc1 (stereo not drawn) [Compound 142] | < 8 nM
17 | O=C1C2Cc3c([nH]c4ccc(Cl)cc34)C(c3ccc4c(c3)OCO4)N2C(=O)N1C1CCCCC1 (stereo not drawn) [Compound 31] | 40 to 200 nM

Row | Compound | EC50
18 | CC(C)N1C(=O)C2Cc3c([nH]c4ccc(Cl)cc34)C(c3ccc(-n4ccnc4)cc3)N2C1=S (stereo not drawn) [Compound 132] | 40 to 200 nM
19 | COCCN(CCCOc1ccc(C2c3[nH]c4ccc(Br)cc4c3CC3C(=O)N(C(C)C)C(=S)N32)cc1)CCOC (stereo not drawn) [Compound 156] | 8 to 40 nM
20 | COC(=O)c1ccc(N2C(=O)C3Cc4c([nH]c5ccc(Br)cc45)C(c4ccc(OC)cc4)N3C2=S)cc1 (stereo not drawn) [Compound 139] | 8 to 40 nM
21 | CCCCCN1C(=O)C2Cc3c([nH]c4ccc(Br)cc34)C(c3ccc(C(C)C)cc3)N2C1=S (stereo not drawn) [Compound 98] | < 8 nM
22 | COc1cccc(C2c3[nH]c4ccccc4c3CC3C(=O)N(C4CCCC4)C(=S)N32)c1 (stereo not drawn) [Compound 12] | > 1000 nM
23 | COC(=O)N1C(=O)C2Cc3c([nH]c4ccc(Br)cc34)C(c3ccc(OC)cc3)N2C1=S (stereo not drawn) [Compound 147] | 40 to 200 nM
24 | COc1ccc(C2c3[nH]c4ccccc4c3CC3C(=O)N(c4ccc(OC)cc4C)C(=S)N32)cc1 (stereo not drawn) [Compound 78] | > 1000 nM
25 | COc1ccc(C2c3[nH]c4ccccc4c3CC3C(=O)N(CCc4ccccc4)C(=S)N32)cc1 (stereo not drawn) [Compound 79] | > 1000 nM
26 | COc1ccc(C2c3[nH]c4ccc(Br)cc4c3CC3C(=O)N(c4ccccc4C(C)C)C(=S)N32)cc1 (stereo not drawn) [Compound 183] | 40 to 200 nM
27 | O=C1C2Cc3c([nH]c4ccccc34)C(c3ccccc3)N2C(=S)N1C1CCCCC1 (stereo not drawn) [Compound 56] | > 1000 nM
28 | COc1ccccc1C1c2[nH]c3ccccc3c2CC2C(=O)N(c3ccc(C)cc3)C(=S)N21 (stereo not drawn) [Compound 91] | > 1000 nM
29 | COc1ccc(C2c3[nH]c4ccc(Br)cc4c3CC3C(=O)N(Cc4ccc(Cl)cc4)C(=S)N32)cc1 (stereo not drawn) [Compound 201] | < 8 nM
30 | CN1C(=O)C2Cc3c([nH]c4ccccc34)C(c3cccc(F)c3)N2C1=S (stereo not drawn) [Compound 65] | > 1000 nM
31 | COc1ccc(C2c3[nH]c4ccc(Br)cc4c3CC3C(=O)N(c4cccc(OC(C)=O)c4)C(=S)N32)cc1 (stereo not drawn) [Compound 182] | < 8 nM
32 | COC(=O)CN1C(=O)C2Cc3c([nH]c4ccc(Br)cc34)C(c3ccc(OC)cc3)N2C1=S (stereo not drawn) [Compound 136] | 40 to 200 nM
33 | O=C1C2Cc3c([nH]c4ccc(Br)cc34)C(c3ccc(OCCN4CCOCC4)cc3)N2C(=S)N1C1CCCC1 (stereo not drawn) [Compound 104] | < 8 nM
